According to patent publication US8772500B2, “TRPV3 modulators” (AbbVie Inc., priority 2011, dated 2014):

What was measured:
[1] = In vitro human microsomal stability assay; type: in vitro ADME
Method: (§1) Test compounds were evaluated for metabolic stability in an in vitro rat microsomal stability assay using rat (Sprague-Dawley, from BD Biosciences) liver microsomes and/or an in vitro human microsomal stability assay using human (Xenotech) liver microsomes. […] Incubations were carried out at 37° C. with a final incubation volume of 135 μL. […] A 1.5 μL aliquot of reduced nicotine adenine disphosphonucleotide (NADPH) (Chem-Impex Int'L Inc., Lot 12532024) was also added to the time-zero plates.

[2] = In vitro rat microsomal stability assay; type: in vitro ADME, rat (Sprague-Dawley)
Method: as §1

[3] = Sprague-Dawley, rat, 0.5 h, 0.5 μM, pH 7.4
[4] = 0.5 μM substrate, 0.25 mg/mL microsomal protein, pH 7.4, 37° C., NADPH, 30 minutes

SMILES | HUMAN MICROSOMAL STABILITY (% REMAINING AFTER 30 MINUTES) ([1]; human, 0.5 h, 0.5 μM, pH 7.4) | RAT MICROSOMAL STABILITY (% REMAINING AFTER 30 MINUTES) [2, 3] | HUMAN MICROSOMAL STABILITY (% REMAINING AFTER 30 MINUTES) [1, 4] | RAT MICROSOMAL STABILITY (% REMAINING AFTER 30 MINUTES) [2, 4]
OC(c1ccccn1)C1(c2ccccc2F)CCCO1 (centres unmarked) [Example 102] | 45% | 0.55% |  | 
Nc1cccnc1C(O)C1(c2cccc(C(F)(F)F)c2)CCC1 (centres unmarked) [Example 120, (3-aminopyridin-2-yl){1-[3-(trifluoromethyl)phenyl]cyclobutyl}methanol] | 1.6% | <0.01% |  | 
Nc1cccnc1C(O)C1(c2ccc(OC(F)(F)F)cc2)CCC1 (centres unmarked) [Example 121, (3-aminopyridin-2-yl){1-[4-(trifluoromethoxy)phenyl]cyclobutyl}methanol] | 41% | 0.18% |  | 
O[C@@H](c1ccccn1)C1(c2cc(C(F)(F)F)ccn2)CCC1 [Example 122, (R)-pyridin-2-yl{1-[4-(trifluoromethyl)pyridin-2-yl]cyclobutyl}methanol] | 28% | 26% |  | 
Nc1cccnc1C(O)C1(c2cccc(OC(F)(F)F)c2)CCC1 (centres unmarked) [Example 124, (3-aminopyridin-2-yl){1-[3-(trifluoromethoxy)phenyl]cyclobutyl}methanol] | 1.6% | <0.01% |  | 
OC(c1ccccn1)C1(c2ccc(Cl)c(Cl)c2)CCNCC1 (centres unmarked) [Example 140, [4-(3,4-dichlorophenyl)piperidin-4-yl](pyridin-2-yl)methanol] | >85% | 37% |  | 
CN1CCC(c2ccc(Cl)c(Cl)c2)(C(O)c2ccccn2)CC1 (centres unmarked) [Example 141, [4-(3,4-dichlorophenyl)-1-methylpiperidin-4-yl](pyridin-2-yl)methanol] |  |  | >85% | 59%
OC(c1ccccn1)C1(c2ccccc2OC(F)(F)F)CCNCC1 (centres unmarked) [Example 142, pyridin-2-yl{4-[2-(trifluoromethoxy)phenyl]piperidin-4-yl}methanol] | >85% | 37% |  | 
CN1CCC(c2ccc(C(F)(F)F)cc2)(C(O)c2ccccn2)CC1 (centres unmarked) [Example 143, {1-methyl-4-[4-(trifluoromethyl)phenyl]piperidin-4-yl}(pyridin-2-yl)-methanol] |  |  | >85% | 80%
OC(c1ccccn1)C1(c2ccc(OC(F)(F)F)cc2)CCNCC1 (centres unmarked) [Example 144, pyridin-2-yl{4-[4-(trifluoromethoxy)phenyl]piperidin-4-yl}methanol] | >85% | 51% |  | 
OC(c1ccccn1)C1(c2ccc(C(F)(F)F)cc2)CCNCC1 (centres unmarked) [Example 147, pyridin-2-yl{4-[4-(trifluoromethyl)phenyl]piperidin-4-yl}methanol] | >85% | 79% |  | 
CC(C)(C)OC(=O)N1CCC(c2ccc(C(F)(F)F)cc2)(C(O)c2ccccn2)CC1 (centres unmarked) [Example 156, tert-butyl 4-[hydroxy(pyridin-2-yl)methyl]-4-[4-(trifluoromethyl)phenyl]-piperidine-1-carboxylate] | 26% | 0.08% |  | 
CC(C)(C)OC(=O)N1CCC(c2ccc(OC(F)(F)F)cc2)(C(O)c2ccccn2)CC1 (centres unmarked) [Example 157, tert-butyl 4-[hydroxy(pyridin-2-yl)methyl]-4-[4-(trifluoromethoxy)phenyl]-piperidine-1-carboxylate] | 28% | 0.93% |  | 
CC(C)(C)OC(=O)N1CCC(c2cccc(OC(F)(F)F)c2)(C(O)c2ccccn2)CC1 (centres unmarked) [Example 158, tert-butyl 4-[hydroxy(pyridin-2-yl)methyl]-4-[3-(trifluoromethoxy)phenyl]-piperidine-1-carboxylate] |  |  | 3.7% | 0.04%
OC(C1CCc2cccnc21)C1(c2cccc(C(F)(F)F)c2)CCC1 (stereo not drawn) [Example 186, (syn)-6,7-dihydro-5H-cyclopenta[b]pyridin-7-yl{1-[3-(trifluoromethyl)-phenyl]cyclobutyl}methanol] | 0.18% |  |  | 
